Measurements taken from patent US12048691B2 (SPERO THERAPEUTICS, INC., priority 2020, dated 2024).
≈ marks a conversion by molar mass, not a printed value. Like-named read-outs stand apart in the source and are kept apart here.

Experiments:
[1] = system: bacteremia secondary to cUTI/AP; test: Efficacy in patients with cUTI or acute pyelonephritis and associated bacteremia; type: in vivo, human
Source text: The objective of this analysis was to evaluate the efficacy of TBP-PI-HBr in the subset of patients with associated bacteremia from a study of patients with either cUTI or acute pyelonephritis.

[2] = system: AmpC production in P. aeruginosa; test: AmpC induction (nitrocefin hydrolysis after drug exposure); type: cell-based
Procedure: (§1) AmpC induction was determined as follows. Baseline MIC values were determined by broth microdilution method, as described above, for 9 Gram-negative isolates with basal expression of ampC. These isolates were cultured overnight on blood agar plates. A standardized inoculum made from fresh overnight plate cultures was added to flasks containing 50 mL of Luria-Bertani (LB) broth and incubated by shaking at 37° C. to OD600 of 0.3. […] These cultures were incubated under shaking conditions. A 40 mL aliquot of bacterial cultures was sampled at time 0 and 2 hours after drug exposures. Each sample aliquot was harvested by centrifugation and the supernatant was discarded.
(§2) Protein crude extract preparations were made in 200 μL of BugBusterR (Novagen, Darmstadt, Germany) per manufacturer instructions and cell debris was removed by centrifugation. Protein concentrations were determined in each crude extract by standard methodologies.
(§3) AmpC induction was measured by the intensity of β-lactamase hydrolytic activity against 0.1 mM nitrocefin in 0.1 M phosphate buffer at pH 7.0 using spectrophotometry at 482 nm (Δ absorbance/minute/mg of protein). The drug exposure conditions that caused a >4-fold increase in hydrolysis activity compared to the baseline were subjected to postinduction experiments. Briefly, cells were grown under the same conditions as before and tested for susceptibility by broth microdilution.

[3] = system: AmpC production in Enterobacterales; test: as above; type: cell-based; details: tebipenem/imipenem except for C. koseri and S. marcescens
Procedure: as §1, §2, §3

[4] = system: E. coli; test: Susceptibility of E. coli from urinary tract infections, 18 EU countries 2020 (STEWARD); type: cell-based
Procedure: The study assessed the prevalence of resistance and evaluated the activity of oral tebipenem (TBP) and comparators against EC from urinary tract infections.
Results were interpreted using EUCAST criteria. […] ESBL phenotypes were determined by CLSI criteria and sequenced to identify CTX-M-15 genotype and clonal complex ST131.

[5] = system: Vancomycin-susceptible Enterococcus faecalis; test: Broth microdilution against Gram-positive clinical isolates; type: cell-based; details: Enterococcus faecalis; E. faecalis, 31 isolates
Procedure: (§4) The purpose of this study was to investigate the in vitro activity of tebipenem and comparator agents, including ertapenem and meropenem, against a recent collection of Gram-positive isolates associated with clinical infections. The susceptibility of 580 Gram-positive organisms were tested, including: Methicillin-susceptible Staphylococcus aureus (MSSA, 489 isolates), Methicillin-susceptible Staphylococcus epidermidis (MSSE, 31), other methicillin-susceptible coagulase-negative staphylococci (MSCONS, 29), and Vancomycin-susceptible Enterococcus faecalis (31). Bacterial species were identified by JMI Laboratories using standard microbiology methods and matrix-assisted laser desorption ionization-time of flight mass spectrometry (Bruker Daltonics, Bremen, Germany). The isolates were collected in 2018 and 2019 as part of the SENTRY surveillance program and selected to be representative of these species with 45.0% from the United States, 44.3% from Europe, 5.3% from the Asia-Pacific region, and 5.3% from Latin America. Isolates are primarily from pneumonia in hospitalized patients (498 isolates; 85.9%), urinary tract infections (42 isolates; 7.2%), and bloodstream infections (38 isolates; 6.6%). Isolates were tested in a central laboratory (JMI Laboratories) for antimicrobial susceptibility using the CLSI M07 (2018) reference broth microdilution method. JMI Laboratories produced frozen-form 96-well panels and used cation-adjusted Mueller-Hinton broth (CA-MHB) as the testing medium. All categorical interpretations used CLSI M100 (2021) and EUCAST v10.0 (2021) breakpoint criteria, where published. Quality control organisms include Escherichia coli ATCC 25922, Escherichia coli ATCC 35218, Enterococcus faecalis ATCC 29212, Pseudomonas aeruginosa ATCC 27853, and Staphylococcus aureus ATCC 29213 were tested concurrently with clinical isolates.

[6] = system: Methicillin-susceptible Staphylococcus aureus (MSSA); test: as above; type: cell-based; details: Staphylococcus aureus, 489 isolates
Procedure: as §4

[7] = system: Methicillin-susceptible Staphylococcus epidermidis (MSSE); test: as above; type: cell-based; details: Staphylococcus epidermidis, 31 isolates
Procedure: as §4

[8] = system: E. coli; test: Broth microdilution MIC against characterized subsets of UTI E. coli (2018-2020); type: cell-based; details: for MIC50 / MIC90: Escherichia coli; for MIC50: read-out: MIC50; for MIC90: read-out: MIC90
Source text: Isolates were collected from medical centers in all 9 US Census Regions and tested by broth microdilution. MIC interpretation was based on CLSI. Isolates that met MIC criteria were subjected to genome sequencing, followed by screening of extended-spectrum b-lactamase (ESBL) genes and epidemiology typing (MLST).

[9] = system: other methicillin-susceptible coagulase-negative staphylococci (MSCONS); test: Broth microdilution against Gram-positive clinical isolates; type: cell-based; details: 29 isolates
Procedure: The purpose of this study was to investigate the in vitro activity of tebipenem and comparator agents, including ertapenem and meropenem, against a recent collection of Gram-positive isolates associated with clinical infections. The susceptibility of 580 Gram-positive organisms were tested, including: […] Bacterial species were identified by JMI Laboratories using standard microbiology methods and matrix-assisted laser desorption ionization-time of flight mass spectrometry (Bruker Daltonics, Bremen, Germany). […] Isolates were tested in a central laboratory (JMI Laboratories) for antimicrobial susceptibility using the CLSI […] (2018) reference broth microdilution method. JMI Laboratories produced frozen-form 96-well panels and used cation-adjusted Mueller-Hinton broth (CA-MHB) as the testing medium. […] Quality control organisms include Escherichia coli ATCC 25922, Escherichia coli ATCC 35218, Enterococcus faecalis ATCC 29212, Pseudomonas aeruginosa ATCC 27853, and Staphylococcus aureus ATCC 29213 were tested concurrently with clinical isolates.

With `C[C@@H](O)[C@H]1C(=O)N2C(C(=O)O)=C(S[C@@H]3CN[C@H](C(=O)Nc4cccc(C(=O)O)c4)C3)[C@H](C)[C@H]12` [Ertapenem, ertapenem] the Clinical cure rate ([1]; EOT) was 100%, the Clinical cure rate ([1]; TOC) was 94.3% and the Overall response rate ([1]; end-of-treatment (EOT)) was 96.2%. For the same compound, the Clinical cure rate ([1]; late-follow-up (LFU) visit) was “approximately 89%”, the Overall response rate ([1]; test-of-cure (TOC)) was 66.0% and the “effect of exposure on production of AmpC” value [2] was “not observed”. The “effect of exposure on production of AmpC” value [3] was “did not seem to affect production of AmpC”, the MIC90 ([4]; Escherichia coli, all E. coli (764) from UTIs) was 0.03 mg/L (≈ 0.0631 µM) and the Susceptibility rate ([4]; all E. coli, EUCAST criteria) was 99.9%. For the same compound, the MIC90 [5] was > 8 mg/L, the MIC90 [6] was 0.25 mg/L (≈ 0.526 µM) and the MIC90 [7] was 0.5 mg/L (≈ 1.05 µM). The “% susceptible by CLSI M100 criteria” value ([8]; CMYb (33)) was 90.6%, the “% susceptible by CLSI M100 criteria” value ([8]; CTX-M a) was 98.9% and the “% susceptible by CLSI M100 criteria” value ([8]; DHA(7)) was 85.7%. For the same compound, the “% susceptible by CLSI M100 criteria” value ([8]; ESBL (360)) was 97.4%, the MIC50 ([8]; CMYb (33)) was 0.06 mg/L (≈ 0.126 µM) and the MIC50 ([8]; CTX-M a) was 0.03 mg/L (≈ 0.0631 µM). The MIC90 ([8]; CTX-M a) was 0.12 mg/L (≈ 0.252 µM), the MIC50 ([8]; DHA(7)) was 0.06 mg/L (≈ 0.126 µM) and the MIC50 ([8]; ESBL (360)) was 0.03 mg/L (≈ 0.0631 µM). For the same compound, the MIC90 ([8]; ESBL (360)) was 0.12 mg/L (≈ 0.252 µM), the MIC50 ([8]; Non-ESBL (2035)) was ≤ 0.008 mg/L and the MIC90 ([8]; Non-ESBL (2035)) was 0.015 mg/L (≈ 0.0315 µM). The MIC50 ([8]; Non-ST131 (203)) was 0.015 mg/L (≈ 0.0315 µM), the MIC90 ([8]; ST131 (222)) was 0.06 mg/L (≈ 0.126 µM) and the “% susceptible by CLSI M100 criteria” value ([8]; Non-ESBL (2035)) was 100%. For the same compound, the “% susceptible by CLSI M100 criteria” value ([8]; Non-ST131 (203)) was 97.0%, the “% susceptible by CLSI M100 criteria” value ([8]; ST131 (222)) was 99.1% and the “% susceptible” value ([8]; against the various subsets) was ≥ 97.0%. The susceptibility rates ([8]; isolates carrying plasmid AmpC) was 85.7-90.6% and the MIC90 [9] was 1 mg/L (≈ 2.1 µM).
